Test results as given in patent US11111270B2, “Inhibitor of apoptosis protein (IAP) antagonists” (Sanford Burnham Prebys Medical Discovery Institute, priority 2012, dated 2021).

Key:
XIAP BIR1/2 = XIAP BIR1/2 (Homo sapiens, UniProt P98170); assay: XIAP BIR1/2 Ki; format: binding
XIAP BIR3 = XIAP BIR3 (Homo sapiens (Human), UniProt P98170); assay: XIAP BIR3 Ki; format: binding
ML-IAP = ML-IAP (Homo sapiens (Human), UniProt Q96CA5); assay: ML-IAP Ki; format: binding
PPC-1 cells [1] = assay: PPC-1 cell survival with TRAIL (Cell Titer Glo); format: cell-based
Description: (§1) 5000 PPC-1 cells were plated and grown overnight. Compounds were plated and 4 hrs later, TRAIL was added to half of the plate while RPMI was added to the other half of the plate as a control. Plates were return to the incubator for 24 hrs. Plates were removed from the incubator and placed on the bench for 30 min and then 25 uL of Cell Titer Glo were added per well. Plates were placed on a rocker and then read on a luminometer. 5000 MDA-MB-231 cells were plated per well. Compound was added and 4 hrs later, TRAIL was added at 5 ng/mL; RPMI was added for a minus TRAIL control. Plates were incubated an additional 24 hrs, removed to the bench for 30 min, and then 25 uL of cell titer glo was added per well. Plates were placed on a rocker and read on a luminometer. Data were fit using PRISM.

MDA-MB-231 cells = assay: MDA-MB-231 cell survival (Cell Titer Glo); format: cell-based
Description: as §1

PPC-1 cells [2] = assay: PPC-1 cell survival with TNFα; format: cell-based
Description: as §1, with “Compounds were plated and 4 hrs later, TRAIL was added to half of the plate while RPMI was added to the other half of the plate as a control.” left out

Chain of XIAP BIR3 (P98170 241-356): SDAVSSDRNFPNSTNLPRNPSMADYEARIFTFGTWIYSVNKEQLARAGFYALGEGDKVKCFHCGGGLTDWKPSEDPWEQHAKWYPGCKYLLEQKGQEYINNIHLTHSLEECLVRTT
Chain of ML-IAP (Q96CA5 whole entry, species assumed): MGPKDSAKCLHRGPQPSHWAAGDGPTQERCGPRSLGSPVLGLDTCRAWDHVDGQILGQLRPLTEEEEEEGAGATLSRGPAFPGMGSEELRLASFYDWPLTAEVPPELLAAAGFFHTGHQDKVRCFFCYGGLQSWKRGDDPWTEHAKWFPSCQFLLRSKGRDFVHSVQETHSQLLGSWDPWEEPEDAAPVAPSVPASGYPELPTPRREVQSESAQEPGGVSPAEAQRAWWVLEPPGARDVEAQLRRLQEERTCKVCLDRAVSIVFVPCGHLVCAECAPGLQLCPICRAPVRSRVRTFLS
Chain of XIAP BIR1/2 (P98170 whole entry, looked up): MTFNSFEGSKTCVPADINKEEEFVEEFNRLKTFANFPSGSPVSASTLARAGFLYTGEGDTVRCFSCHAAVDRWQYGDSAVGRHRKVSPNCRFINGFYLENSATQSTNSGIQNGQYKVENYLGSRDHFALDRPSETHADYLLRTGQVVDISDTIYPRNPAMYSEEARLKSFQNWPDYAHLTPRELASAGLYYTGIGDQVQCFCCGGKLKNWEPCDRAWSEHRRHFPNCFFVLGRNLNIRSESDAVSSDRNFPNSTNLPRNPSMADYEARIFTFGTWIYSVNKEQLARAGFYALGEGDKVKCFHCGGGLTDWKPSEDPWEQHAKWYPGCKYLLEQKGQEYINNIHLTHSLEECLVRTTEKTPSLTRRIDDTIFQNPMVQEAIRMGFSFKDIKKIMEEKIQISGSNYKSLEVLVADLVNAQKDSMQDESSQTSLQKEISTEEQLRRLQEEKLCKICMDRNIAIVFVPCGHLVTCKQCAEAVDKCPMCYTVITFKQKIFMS

Row | Ki (XIAP BIR3; Table B-1) [µM] | SMILES | Ki (XIAP BIR1/2; Table B-1) [µM] | Ki (ML-IAP; Table B-1) [µM] | further results
1 | – | CN[C@@H](C)C(=O)N[C@@H]1C(=O)N2C(C(=O)Nc3cccc4ccccc34)CC[C@@H]2O[C@@H]1C (stereo partly shown) [Product 11] | > 50 | – | –
2 | 25 to 50 | CN[C@@H](C)C(=O)NC1CCO[C@H]2CC[C@@H](C(=O)n3ccc4ccccc43)N2C1=O (stereo partly shown) [Product 23] | > 50 | – | –
3 | – | CN[C@@H](C)C(=O)N[C@H]1CCO[C@H]2CC[C@H](C(=O)N[C@@H]3CCOc4ccccc43)N2C1=O [Product 39] | > 50 | – | –
4 | – | CN[C@@H](C)C(=O)N[C@H]1CO[C@H]2CCC(C(=O)Nc3ccc(Cl)cc3)N2C1=O (stereo partly shown) [Product 8] | > 50 | – | –
5 | 25 to 50 | CN[C@@H](C)C(=O)N[C@H]1Cc2c([nH]c3ccccc23)[C@H]2CCC(C(=O)N[C@@H]3CCCc4ccccc43)N2C1=O (stereo partly shown) [Product 30] | > 50 | – | –
6 | – | CN[C@@H](C)C(=O)N[C@H]1CCN[C@H]2CCC(C(=O)N[C@@H]3CCCc4ccccc43)N2C1=O (stereo partly shown) [Product 28] | > 50 | – | –
7 | < 25 | CN[C@@H](C)C(=O)N[C@H]1CO[C@H]2CCC(C(=O)NC3CCCc4ccccc43)N2C1=O (stereo partly shown) [Product 9] | > 50 | – | –
8 | < 25 | CN[C@@H](C)C(=O)N[C@H]1CCO[C@H]2CC(C)(C)C(C(=O)Nc3ccccc3SSc3ccccc3NC(=O)C3N4C(=O)[C@@H](NC(=O)[C@H](C)NC)CCO[C@H]4CC3(C)C)N2C1=O (stereo partly shown) [Product 40] | < 25 | – | –
9 | < 25 | CN[C@@H](C)C(=O)N[C@H]1Cc2ccc(O)cc2[C@H]2CC(C)(C)C(C(=O)N[C@@H]3CCCc4ccccc43)N2C1=O (stereo partly shown) [Product 45] | < 25 | – | –
10 | < 25 | CN[C@@H](C)C(=O)N[C@H]1CCS[C@H]2CCCC(C(=O)N[C@@H]3CCCc4ccccc43)N2C1=O (stereo partly shown) [Product 41] | < 25 | – | –
11 | < 25 | CN[C@@H](C)C(=O)N[C@H]1CCO[C@H]2CC[C@@H](C(=O)Nc3cccc4ccccc34)N2C1=O [Product 25] | < 25 | – | –
12 | – | CN[C@@H](C)C(=O)N[C@H]1CO[C@H]2CCC(C(=O)NCc3ccccc3)N2C1=O (stereo partly shown) [Product 5] | > 50 | – | –
13 | < 25 | CN[C@@H](C)C(=O)N[C@H]1Cc2c([nH]c3ccccc23)[C@H]2CCC(C(=O)N[C@@H]3CCCc4ccccc43)N2C1=O (stereo partly shown) [Product 31] | < 25 | – | –
14 | – | CN[C@@H](C)C(=O)N[C@H]1CCO[C@H]2c3ccccc3C(C(=O)N[C@@H]3CCCc4ccccc43)N2C1=O (stereo partly shown) [Product 17a] | – | – | Ki (ML-IAP; Table 2-2): < 25 µM; Ki (XIAP BIR1/2; Table 2-2): > 50 µM; Ki (XIAP BIR3; Table 2-2): < 25 µM
15 | < 25 | CN[C@@H](C)C(=O)N[C@H]1CCCNC2CCC(C(=O)Nc3cccc4ccccc34)N2C1=O (stereo partly shown) [Product 17] | < 25 | – | –
16 | – | CN[C@@H](C)C(=O)N[C@H]1CCO[C@H]2CC(C)(C)C(C(=O)N[C@@H]3CCCc4ccccc43)N2C1=O (stereo partly shown) [Product 17b] | – | – | Ki (ML-IAP; Table 2-2): < 25 µM; Ki (XIAP BIR1/2; Table 2-2): < 25 µM; Ki (XIAP BIR3; Table 2-2): < 25 µM
17 | – | CC(=O)N(C)[C@@H](C)C(=O)N[C@H]1CCCN(C(C)=O)[C@H]2CCC(C(=O)Nc3cccc4ccccc34)N2C1=O (stereo partly shown) [Product 18] | > 50 | – | –
18 | – | CN[C@@H](C)C(=O)N[C@H]1CCS[C@H]2CC(C)(C)C(C(=O)N[C@@H]3CCCc4ccccc43)N2C1=O (stereo partly shown) [Product 17c] | – | – | Ki (ML-IAP; Table 2-2): < 25 µM; Ki (XIAP BIR1/2; Table 2-2): < 25 µM; Ki (XIAP BIR3; Table 2-2): < 25 µM
19 | < 25 | CN[C@@H](C)C(=O)N[C@H]1CC(=O)N[C@H]2CC(C)(C)C(C(=O)N[C@@H]3CCCc4ccccc43)N2C1=O (stereo partly shown) [Product 46] | > 50 | < 25 | –
20 | < 25 | CN[C@@H](C)C(=O)N[C@H]1CCCN(C(C)=O)C2CCC(C(=O)N[C@@H]3CCCc4ccccc43)N2C1=O (stereo partly shown) [Product 20] | > 50 | – | –
21 | < 25 | CN[C@@H](C)C(=O)NC1CCO[C@H]2CCC(C(=O)Nc3cccc4ccccc34)N2C1=O (stereo partly shown) [Product 13] | < 25 | – | –
22 | 25 to 50 | CN[C@@H](C)C(=O)NC1CCO[C@H]2CC[C@H](C(=O)n3ccc4ccccc43)N2C1=O (stereo partly shown) [Product 22] | > 50 | – | –
23 | – | CN[C@@H](C)C(=O)N[C@@H]1C(=O)N2C(C(=O)NC(c3ccccc3)c3ccccc3)CC[C@@H]2O[C@@H]1C (stereo partly shown) [Product 15] | > 50 | – | –
24 | < 25 | CN[C@@H](C)C(=O)N[C@H]1CCO[C@H]2CCC(C(=O)NC(c3ccccc3)c3ccccc3)N2C1=O (stereo partly shown) [Product 14] | > 50 | < 25 | –
25 | < 25 | CN[C@@H](C)C(=O)N[C@@H]1C(=O)N2C(C(=O)NC3CCCc4ccccc43)CC[C@@H]2O[C@@H]1C (stereo partly shown) [Product 10] | > 50 | < 25 | –
26 | – | CN[C@@H](C)C(=O)N[C@H]1CCS(=O)(=O)[C@H]2CC[C@H](C(=O)N[C@@H]3CCCc4ccccc43)N2C1=O [Product 38] | > 50 | – | –
27 | – | CN[C@@H](C)C(=O)N[C@H]1CO[C@H]2CCC(C(=O)Nc3ccc(OC)cc3)N2C1=O (stereo partly shown) [Product 3] | > 50 | – | –
28 | < 25 | CN[C@@H](C)C(=O)N[C@H]1CCO[C@H]2CC3(CC=CC3)C(C(=O)N[C@@H]3CCCc4ccccc43)N2C1=O (stereo partly shown) [Product 42] | < 25 | < 25 | –
29 | < 25 | CN[C@@H](C)C(=O)N[C@H]1CCO[C@H]2CC3(CCCC3)C(C(=O)N[C@@H]3CCCc4ccccc43)N2C1=O (stereo partly shown) [Product 43] | < 25 | – | –

Row | SMILES | Ki (XIAP BIR3; Table B-1) [µM] | Ki (XIAP BIR1/2; Table B-1) [µM] | Ki (ML-IAP; Table B-1) [µM] | further results
30 | CN[C@@H](C)C(=O)N[C@H]1CCS(=O)(=O)[C@H]2CC[C@@H](C(=O)N[C@@H]3CCCc4ccccc43)N2C1=O [Product 37] | < 25 | > 50 | – | –
31 | CN[C@@H](C)C(=O)N[C@H]1CCO[C@H]2CCC(C(=O)N[C@@H]3CCCc4ccccc43)N2C1=O (stereo partly shown) [Product 12] | < 25 | > 50 | < 25 | PPC-1 (TRAIL) LD50 (PPC-1 cells [1]): A (A = ≤ 25 micromolar); MDA-MB-231 LD50 (MDA-MB-231 cells): A (A = ≤ 25 micromolar); PPC-1 (TNFα) LD50 (PPC-1 cells [2]): A (A = ≤ 25 micromolar)
32 | CN[C@@H](C)C(=O)N[C@H]1CCO[C@H]2CC(C)(C)[C@@H](C(=O)N[C@@H]3CCCc4ccccc43)N2C1=O [Product 26] | < 25 | < 25 | < 25 | PPC-1 (TRAIL) LD50 (PPC-1 cells [1]): A (A = ≤ 25 micromolar); MDA-MB-231 LD50 (MDA-MB-231 cells): A (A = ≤ 25 micromolar); PPC-1 (TNFα) LD50 (PPC-1 cells [2]): A (A = ≤ 25 micromolar)
33 | CN[C@@H](C)C(=O)N[C@H]1CCS[C@H]2CCC(C(=O)N[C@@H]3CCCc4ccccc43)N2C1=O (stereo partly shown) [Product 24] | < 25 | > 50 | < 25 | PPC-1 (TRAIL) LD50 (PPC-1 cells [1]): A (A = ≤ 25 micromolar); MDA-MB-231 LD50 (MDA-MB-231 cells): A (A = ≤ 25 micromolar); PPC-1 (TNFα) LD50 (PPC-1 cells [2]): A (A = ≤ 25 micromolar)
34 | CN[C@@H](C)C(=O)N[C@H]1CCS[C@H]2CC(C)(C)C(C(=O)N[C@@H]3CCCc4ccccc43)N2C1=O (stereo partly shown) [Product 35] | < 25 | < 25 | < 25 | PPC-1 (TRAIL) LD50 (PPC-1 cells [1]): A (A = ≤ 25 micromolar); PPC-1 (TNFα) LD50 (PPC-1 cells [2]): A (A = ≤ 25 micromolar)
35 | CN[C@@H](C)C(=O)N[C@H]1CCN[C@H]2CCC(C(=O)N[C@@H]3CCCc4ccccc43)N2C1=O (stereo partly shown) [Product 29] | > 50 | – | – | –
36 | CN[C@@H](C)C(=O)N[C@H]1CCO[C@H]2c3ccccc3C(C(=O)N[C@@H]3CCCc4ccccc43)N2C1=O (stereo partly shown) [Product 27] | < 25 | > 50 | < 25 | PPC-1 (TRAIL) LD50 (PPC-1 cells [1]): A (A = ≤ 25 micromolar); PPC-1 (TNFα) LD50 (PPC-1 cells [2]): A (A = ≤ 25 micromolar)
37 | CN[C@@H](C)C(=O)N[C@H]1CCS[C@H]2CC[C@H](C(=O)N[C@@H]3CCCc4ccccc43)N2C1=O [Product 36] | < 25 | > 50 | < 25 | –
38 | CN[C@@H](C)C(=O)N[C@H]1CCO[C@H]2CC[C@@H](C(=O)N[C@@H]3CCOc4ccccc43)N2C1=O [Product 32] | < 25 | > 50 | < 25 | PPC-1 (TRAIL) LD50 (PPC-1 cells [1]): A (A = ≤ 25 micromolar); MDA-MB-231 LD50 (MDA-MB-231 cells): A (A = ≤ 25 micromolar); PPC-1 (TNFα) LD50 (PPC-1 cells [2]): A (A = ≤ 25 micromolar)
39 | CN[C@@H](C)C(=O)N[C@H]1CCO[C@H]2CC[C@@H](C(=O)N[C@@H]3CCCc4ccccc43)N2C1=O [Product 33] | < 25 | > 50 | < 25 | PPC-1 (TRAIL) LD50 (PPC-1 cells [1]): A (A = ≤ 25 micromolar); PPC-1 (TNFα) LD50 (PPC-1 cells [2]): A (A = ≤ 25 micromolar)
40 | CN[C@@H](C)C(=O)N[C@H]1CCS[C@H]2CC[C@@H](C(=O)N[C@@H]3CCCc4ccccc43)N2C1=O [Product 34] | < 25 | > 50 | < 25 | PPC-1 (TRAIL) LD50 (PPC-1 cells [1]): A (A = ≤ 25 micromolar); PPC-1 (TNFα) LD50 (PPC-1 cells [2]): A (A = ≤ 25 micromolar)
41 | CN[C@@H](C)C(=O)N[C@H]1CCCNC2CCC(C(=O)N[C@@H]3CCCc4ccccc43)N2C1=O (stereo partly shown) [Product 16] | < 25 | – | – | –
42 | CNC(C)C(=O)N[C@H]1CO[C@H]2CCC(C(=O)Nc3ccc(OC)cc3)N2C1=O (stereo partly shown) [Product 4] | 25 to 50 | > 50 | – | –
